Marks after values point to notes of the source that are not given here.
How the values were obtained:
Assay type in all cases: in vivo
Kunming mice [1] = assay: Influence on autonomic activity of normal mice (ZIL-2 mice autonomic activity meter, counts within 10 min); conditions: intragastric, x ± s, n = 10; for Times of activities in 1 h after drug administration/10 min: 1 h after administration; for Times of activities in 2 h after drug administration/10 min: 2 h after administration; for Times of activities in 24 h after drug administration/10 min: 24 h after administration
In short: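 Activity counts during a 10-min window were taken at 1, 2 and 24 h after dosing in groups of 10 mixed-sex Kunming mice. Compounds were given in 0.5% CMC-Na at 25, 50 or 100 mg/kg. Statistics used Levene's homogeneity test, ANOVA and Dunnett's multiple comparisons.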

Kunming mice [2] = assay: Influence on hypnosis effect with pentobarbital sodium doses at the threshold (50 mg/kg i.p.); conditions: pentobarbital sodium 50 mg/kg i.p. 60 min later, x ± s, n = 10
In short: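 Pentobarbital sodium (0.3%, 50 mg/kg i.p.) injected 60 min after a single intragastric dose (25, 50, 100 mg/kg, 0.5% CMC-Na vehicle) in Kunming mice, 10 per group, sexes balanced. Onset and length of sleep (righting reflex lost over 1 min) analysed by ANOVA; sleeping incidence by χ2 test.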

Kunming mice [3] = assay: Influence on hypnosis effect with pentobarbital sodium doses below the threshold (25 mg/kg i.p.); conditions: pentobarbital sodium 25 mg/kg i.p. 60 min later, sleep observed in 30 min, n = 10
In short: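 Percentage of mice sleeping within 30 min after subthreshold pentobarbital sodium (25 mg/kg i.p.), defined by loss of righting reflex over 1 min, analysed by χ2. Compound in 0.5% CMC-Na given intragastrically at 25/50/100 mg/kg 60 min before; groups of 10 Kunming mice, both sexes.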

[4] = 25 mg/kg intragastric single dose
[5] = 50 mg/kg intragastric single dose
[6] = 100 mg/kg intragastric single dose
[7] = test drug 25 mg/kg intragastric single dose
[8] = test drug 50 mg/kg intragastric single dose
[9] = test drug 100 mg/kg intragastric single dose

| SMILES | Times of activities in 1 h after drug administration/10 min (Kunming mice [1]; 25 mg/kg) | Times of activities in 2 h after drug administration/10 min (Kunming mice [1]; 25 mg/kg) | Times of activities in 24 h after drug administration/10 min (Kunming mice [1]; 25 mg/kg) | Times of activities in 1 h after drug administration/10 min (Kunming mice [1]; 50 mg/kg) | Times of activities in 2 h after drug administration/10 min (Kunming mice [1]; 50 mg/kg) | Times of activities in 24 h after drug administration/10 min (Kunming mice [1]; 50 mg/kg) | Times of activities in 1 h after drug administration/10 min (Kunming mice [1]; 100 mg/kg) | Times of activities in 2 h after drug administration/10 min (Kunming mice [1]; 100 mg/kg) | Times of activities in 24 h after drug administration/10 min (Kunming mice [1]; 100 mg/kg) | duration of sleep (Kunming mice [2]; [4]) [min] | time to sleep (Kunming mice [2]; [4]) [min] | duration of sleep (Kunming mice [2]; [5]) [min] | time to sleep (Kunming mice [2]; [5]) [min] | duration of sleep (Kunming mice [2]; [6]) [min] | time to sleep (Kunming mice [2]; [6]) [min] | Number of sleeping animals (Kunming mice [3]; [7]) | rate of sleeping (%) (Kunming mice [3]; [7]) | Number of sleeping animals (Kunming mice [3]; [8]) | rate of sleeping (%) (Kunming mice [3]; [8]) | Number of sleeping animals (Kunming mice [3]; [9]) | further results |
| --- | --- | --- | --- | --- | --- | --- | --- | --- | --- | --- | --- | --- | --- | --- | --- | --- | --- | --- | --- | --- | --- |
| CCCc1cc(C2CC(=O)c3c(cc(O)cc3[N+](=O)[O-])O2)cc(-c2ccccc2)c1C1CCSC1 (stereo not drawn) [Example 51] | 227.8 ± 75.6 /10 min | 231.8 ± 79.8 /10 min | 321.6 ± 70.7 /10 min | 143.3 ± 64.7 /10 min | 130.7 ± 63.2 /10 min | 306.3 ± 68.2 /10 min | 115.8 ± 34.4 /10 min | 108.8 ± 39.4 /10 min | 300.4 ± 77.5 /10 min | 49.88 ± 19.09 | 4.61 ± 1.74 | 57.61 ± 14.98 | 3.43 ± 1.99 | 82.27 ± 15.68 | 2.71 ± 1.72 | 6 | 60** % | 6 | 60** % | 8 | rate of sleeping (%) (Kunming mice [3]; [9]): 80*** % |
| CCc1cccc2c1C(=O)CC(c1cc(F)cc(C(=O)O)c1)O2 (stereo not drawn) [Example 53] | 303.8 ± 67.4 /10 min | 283.8 ± 73.8 /10 min | 314.9 ± 68.9 /10 min | 249.3 ± 61.0 /10 min | 236.7 ± 60.8 /10 min | 297.7 ± 87.6 /10 min | 201.8 ± 36.6 /10 min | 194.8 ± 42.5 /10 min | 330.9 ± 73.6 /10 min | 39.56 ± 20.45 | 4.82 ± 1.61 | 47.28 ± 16.84 | 4.31 ± 1.84 | 52.86 ± 19.25 | 3.61 ± 1.48 | 4 | 40* % | 6 | 60** % | 7 | rate of sleeping (%) (Kunming mice [3]; [9]): 70** % |
| CCc1cc(C2CC(=O)c3cc([N+](=O)[O-])c(SC#N)c(C4CCNC4)c3O2)ccc1C(=O)c1ccccc1 (stereo not drawn) [Example 54] | 307.3 ± 65.2 /10 min | 287.3 ± 72.9 /10 min | 331.2 ± 67.4 /10 min | 252.8 ± 62.1 /10 min | 240.2 ± 62.6 /10 min | 320.7 ± 75.1 /10 min | 205.3 ± 42.8 /10 min | 198.3 ± 48.5 /10 min | 315.3 ± 79.2 /10 min | 35.81 ± 17.2 | 4.84 ± 1.64 | 43.53 ± 14.97 | 4.33 ± 1.87 | 47.53 ± 15.92 | 3.63 ± 1.54 | 3 | 30% | 5 | 50** % | 7 | rate of sleeping (%) (Kunming mice [3]; [9]): 70** % |
| COc1ccc(C2CC(=O)c3cc(CCS(=O)(=O)O)c(C4CCNC4)c(N)c3O2)cc1SC#N (stereo not drawn) [Example 55] | 232.5 ± 66.1 /10 min | 229.8 ± 75.0 /10 min | 295.2 ± 89.3 /10 min | 138.3 ± 67.6 /10 min | 135.6 ± 69.2 /10 min | 297.5 ± 81.0 /10 min | 110.8 ± 55.7 /10 min | 103.8 ± 60.9 /10 min | 289.8 ± 89.7 /10 min | 37.98 ± 13.71 | 4.03 ± 1.97 | 58.53 ± 11.96 | 3.52 ± 2.22 | 65.94 ± 14.95 | 3.21 ± 2.01 | 5 | 50** % | 6 | 60** % | 9 | rate of sleeping (%) (Kunming mice [3]; [9]): 90*** % |
| C=Cc1cc(C2CC(=O)c3cc(C(N)=O)c(C4CCSC4)c(Oc4ccccc4)c3O2)ccc1N (stereo not drawn) [Example 57] | 299.9 ± 58.2 /10 min | 288.1 ± 73.0 /10 min | 311.7 ± 81.2 /10 min | 245.4 ± 45.9 /10 min | 240.8 ± 63.24 /10 min | 315.9 ± 85.6 /10 min | 206.6 ± 44.2 /10 min | 199.6 ± 49.9 /10 min | 325.7 ± 82.6 /10 min | 41.14 ± 23.51 | 4.61 ± 1.53 | 48.87 ± 19.80 | 4.13 ± 1.71 | 54.44 ± 21.81 | 3.43 ± 1.20 | 4 | 40* % | 6 | 60** % | 7 | rate of sleeping (%) (Kunming mice [3]; [9]): 70** % |
| CC=Cc1cc(I)cc2c1OC(c1cccc(C(=O)O)c1)CC2=O (stereo not drawn) [Example 60] | 243.8 ± 73.8 /10 min | 238.9 ± 78.3 /10 min | 340.4 ± 76.8 /10 min | 143.3 ± 64.7 /10 min | 131.8 ± 62.3 /10 min | 327.6 ± 75.3 /10 min | 116.9 ± 33.8 /10 min | 109.9 ± 39.2 /10 min | 293.4 ± 84.9 /10 min | 46.64 ± 22.53 | 4.13 ± 1.59 | 58.37 ± 18.85 | 3.62 ± 1.74 | 73.03 ± 19.21 | 2.32 ± 1.17 | 5 | 50** % | 6 | 60** % | 9 | rate of sleeping (%) (Kunming mice [3]; [9]): 90*** % |
